Data from patent US20210069108A1, “METHODS FOR PREVENTION AND TREATMENT OF PRESSURE ULCERS CAUSED BY ISCHEMIA USING CONTACT VASODILATORS” (priority 2018, published 2021).

Tested on: pressure ulcer
Experiment: topical composition applied to one pressure ulcer of a patient, another pressure ulcer left untreated
Type: in vivo
Settings: patient diagnosed with pressure ulcers
Text: A patient is diagnosed with pressure ulcers. A topical composition comprising the calcium channel blocker nifedipine is applied to one pressure ulcer while another pressure ulcer is left untreated. […] A patient is diagnosed with pressure ulcers. A topical composition comprising the ACE inhibitor enalapril is applied to one pressure ulcer while another pressure ulcer is left untreated. […] A patient is diagnosed with pressure ulcers. A topical composition comprising the angiotensin receptor blocker losartan is applied to one pressure ulcer while another pressure ulcer is left untreated.

SMILES: CCOC(=O)[C@H](CCc1ccccc1)N[C@@H](C)C(=O)N1CCC[C@H]1C(=O)O [enalapril]
- healing of the treated pressure ulcer compared with the untreated pressure ulcer: heal faster than the untreated pressure ulcer

SMILES: CCCCc1nc(Cl)c(CO)n1Cc1ccc(-c2ccccc2-c2nn[nH]n2)cc1 [losartan]
- healing of the treated pressure ulcer compared with the untreated pressure ulcer: heal faster than the untreated pressure ulcer
